# According to US9457033B2, “Steroid alkaloids and uses thereof as antimicrobial agents against electron transport-deficient microbes and as potentiators for antimicrobial agents against pathogenic bacteria” (priority 2011, dated 2016):
# Read-outs that look alike come from different tables or passages of the source.
# Assays:
# [1] = test system: S. aureus Newman; assay: MIC, microdilution in CAMHB 24 h; format: cell-based, Staphylococcus aureus; conditions: Newman
# [2] = test system: S. aureus CF4B-L; assay: MIC, microdilution in CAMHB 24 h; format: cell-based, Staphylococcus aureus; conditions: CF4B-L
# [3] = test system: S. aureus Sa220c; assay: MIC, microdilution in CAMHB 24 h; format: cell-based, Staphylococcus aureus; conditions: Sa220c
# [4] = test system: S. aureus ATCC BAA-41; assay: MIC, microdilution in CAMHB 24 h; format: cell-based, Staphylococcus aureus
# [5] = test system: S. aureus CF7A-L; assay: MIC, microdilution in CAMHB 24 h; format: cell-based, Staphylococcus aureus; conditions: CF7A-L
# [6] = test system: S. aureus ATCC 29213; assay: MIC, microdilution in BHI 48 h (Examples 1, 3); format: cell-based, Staphylococcus aureus
# [7] = test system: S. aureus CF07-L (normal strain); assay: MIC, microdilution in BHI 48 h (Examples 1, 3); format: cell-based, Staphylococcus aureus
# [8] = test system: S. epidermidis ATCC 35984; assay: MIC, microdilution, with or without tomatidine; conditions: S. epidermidis ATCC 35984
# [9] = test system: S. hominis sho23; assay: MIC, microdilution, with or without tomatidine; conditions: S. hominis sho23
# [10] = test system: S. aureus SCV NewbouldΔhemB; assay: MIC, microdilution in BHI 48 h; format: cell-based, Staphylococcus aureus; conditions: NewbouldΔhemB, SCV
# [11] = test system: S. aureus Newbould (normal strain); assay: MIC, microdilution in BHI 48 h; format: cell-based, Staphylococcus aureus; conditions: Newbould, normal strain
# [12] = test system: S. aureus SCV CF1D-S; assay: MIC, microdilution in BHI 48 h; format: cell-based, Staphylococcus aureus; conditions: CF1D-S, SCV
# [13] = test system: S. haemolyticus sh022; assay: MIC, microdilution, with or without tomatidine; conditions: S. haemolyticus sh022
# [14] = test system: S. haemolyticus sh032; assay: MIC, microdilution, with or without tomatidine; conditions: S. haemolyticus sh032
# [15] = test system: all tested S. aureus strains; assay: Average potentiation of aminoglycoside MIC by tomatidine (FIGS. 6, 7); format: cell-based, Staphylococcus aureus; conditions: tomatidine at 8 μg/ml
# [16] = test system: S. epidermidis ATCC 12228; assay: MIC, microdilution, with or without tomatidine; conditions: S. epidermidis ATCC 12228
# [17] = test system: normal strain CF07-L; assay: Broth growth with gentamicin or tomatidine, visually evaluated (FIG. 5A); conditions: gentamicin at 4 μg/ml or tomatidine at 0.12 μg/ml alone, 48 h
# [18] = test system: S. aureus CF1A-L (normal strain); assay: MIC, microdilution in BHI 48 h; format: cell-based, Staphylococcus aureus; conditions: CF1A-L, normal strain
# [19] = test system: S. hominis ssp008c; assay: MIC, microdilution, with or without tomatidine; conditions: S. hominis ssp008c
# [20] = test system: S. aureus SCV CF07-S; assay: MIC, microdilution in BHI 48 h (Examples 1, 3); format: cell-based, Staphylococcus aureus
# [21] = Staphylococcus aureus, 8 μg/ml of tomatidine, read-out: MIC +TO
# [22] = Staphylococcus aureus, absence of tomatidine, read-out: MIC −TO
# [23] = ATCC BAA-41, 8 μg/ml of tomatidine
compound,measurement,setting,value
"NC[C@H]1O[C@H](O[C@H]2[C@H](O)[C@@H](O[C@H]3O[C@H](CO)[C@@H](O)[C@H](N)[C@H]3O)[C@H](N)C[C@@H]2N)[C@H](O)[C@@H](O)[C@@H]1O [Kanamycin, kanamycin]",Fold (−TO/+TO),[1]; 8 μg/ml of tomatidine,8 fold
same,MIC,[1]; [21],0.5 µg/mL
same,MIC,"[1]; Staphylococcus aureus, Human (Osteo), read-out: MIC",4 µg/mL
same,MIC,[1]; [22],4 µg/mL
same,Fold (−TO/+TO),[2]; 8 μg/ml of tomatidine,8 fold
same,MIC,"[2]; Staphylococcus aureus, CF4BL, 8 μg/ml of tomatidine, read-out: MIC +TO",0.5 µg/mL
same,MIC,"[2]; Staphylococcus aureus, CF4BL, Human (CF lungs), read-out: MIC",4 µg/mL
same,MIC,"[2]; Staphylococcus aureus, CF4BL, absence of tomatidine, read-out: MIC −TO",4 µg/mL
same,Fold (−TO/+TO),[3]; 8 μg/ml of tomatidine,8 fold
same,MIC,[3]; [21],0.5 µg/mL
same,MIC,"[3]; Staphylococcus aureus, Human (SSTI), MRSA, read-out: MIC",4 µg/mL
same,MIC,[3]; [22],4 µg/mL
same,Fold (−TO/+TO),[4]; [23],4-8 fold
same,MIC,"[4]; Staphylococcus aureus, ATCC BAA-41 / MRSA, ATCC BAA-41, Human (HA), MRSA, read-out: MIC",256 to 512 µg/mL
same,MIC,"[4]; Staphylococcus aureus, ATCCBAA41, ATCC BAA-41, ant(4′)-Ia, 8 μg/ml of tomatidine, read-out: MIC +TO",64 µg/mL
same,MIC,"[4]; Staphylococcus aureus, ATCCBAA41, ATCC BAA-41, ant(4′)-Ia, absence of tomatidine, read-out: MIC −TO",256 to 512 µg/mL
same,Fold (−TO/+TO),[5]; 8 μg/ml of tomatidine,2-4 fold
same,MIC,"[5]; Staphylococcus aureus, CF7AL, ant(4′)-Ia, 8 μg/ml of tomatidine, read-out: MIC +TO",64 to 256 µg/mL
same,MIC,"[5]; Staphylococcus aureus, CF7AL, ant(4′)-Ia, absence of tomatidine, read-out: MIC −TO",256 to 512 µg/mL
same,MIC,"[5]; Staphylococcus aureus, Human (CF lungs), MRSA, read-out: MIC",256 to 512 µg/mL
gentamicin,MIC,[6]; ATCC 29213 + HQNO at 20 μg/ml,4 µg/mL
same,MIC,"[6]; ATCC 29213, without HQNO",1 µg/mL
same,MIC in presence of CCCP,"[6]; ATCC 29213, 1 μg/ml CCCP",4 to 8 µg/mL
same,MIC,[6]; ATCC 29213 in BHI,1 µg/mL
same,MIC,[6]; ATCC 29213 in MHBCA,0.5-1^ μg/ml
same,Fold (−TO/+TO),[1]; 8 μg/ml of tomatidine,8-16 fold
same,MIC +TO,[1]; 8 μg/ml of tomatidine,0.06 µg/mL
same,MIC,[1]; Human (Osteo),0.5 to 1 µg/mL
same,MIC −TO,[1]; absence of tomatidine,0.5 to 1 µg/mL
same,MIC,[7]; CF07-L + HQNO at 20 μg/ml,4 µg/mL
same,MIC,"[7]; CF07-L, normal strain",1 to 2 µg/mL
same,MIC,"[7]; CF07-L, without HQNO",1 to 2 µg/mL
same,Fold (−TO/+TO),[8]; 8 μg/ml of tomatidine,4 fold
same,MIC +TO,[8]; 8 μg/ml of tomatidine,8 µg/mL
same,MIC −TO,[8]; absence of tomatidine,32 µg/mL
same,Fold (−TO/+TO),[2]; 8 μg/ml of tomatidine,4-8 fold
same,MIC +TO,[2]; 8 μg/ml of tomatidine,0.06 to 0.12 µg/mL
same,MIC,[2]; Human (CF lungs),0.5 µg/mL
same,MIC −TO,[2]; absence of tomatidine,0.5 µg/mL
same,Fold (−TO/+TO),[3]; 8 μg/ml of tomatidine,4-8 fold
same,MIC +TO,[3]; 8 μg/ml of tomatidine,0.06 to 0.12 µg/mL
same,MIC,"[3]; Human (SSTI), MRSA",0.5 µg/mL
same,MIC −TO,[3]; absence of tomatidine,0.5 µg/mL
same,Fold (−TO/+TO),[9]; 8 μg/ml of tomatidine,2 fold
same,MIC +TO,[9]; 8 μg/ml of tomatidine,0.06 µg/mL
same,MIC −TO,[9]; absence of tomatidine,0.12 µg/mL
same,MIC +TO,"[4]; ATCC BAA-41, ant(4′)-Ia, 8 μg/ml of tomatidine",0.12 to 0.25 µg/mL
same,MIC −TO,"[4]; ATCC BAA-41, ant(4′)-Ia, absence of tomatidine",0.5 µg/mL
same,Fold (−TO/+TO),[4]; [23],2-4 fold
same,MIC,"[4]; ATCC BAA-41, Human (HA), MRSA",0.5 µg/mL
same,MIC,[10],4 to 8 µg/mL
same,MIC,[11],0.5-1^ μg/ml
same,MIC,[12],8 µg/mL
same,Fold (−TO/+TO),[13]; 8 μg/ml of tomatidine,4 fold
same,MIC +TO,[13]; 8 μg/ml of tomatidine,4 µg/mL
same,MIC −TO,[13]; absence of tomatidine,16 µg/mL
same,Fold (−TO/+TO),[14]; 8 μg/ml of tomatidine,8 fold
same,MIC +TO,[14]; 8 μg/ml of tomatidine,8 µg/mL
same,MIC −TO,[14]; absence of tomatidine,64 µg/mL
same,average increase of antibacterial activity,[15],8±3 fold
same,Fold (−TO/+TO),[16]; 8 μg/ml of tomatidine,2 fold
same,MIC +TO,[16]; 8 μg/ml of tomatidine,0.06 µg/mL
same,MIC −TO,[16]; absence of tomatidine,0.12 µg/mL
same,"growth, visually evaluated",[17],inhibits the growth
same,MIC,[18],1 to 2 µg/mL
same,Fold (−TO/+TO),[19]; 8 μg/ml of tomatidine,4 fold
same,MIC +TO,[19]; 8 μg/ml of tomatidine,2 µg/mL
same,MIC −TO,[19]; absence of tomatidine,8 µg/mL
same,MIC +TO,"[5]; ant(4′)-Ia, 8 μg/ml of tomatidine",0.12 to 0.25 µg/mL
same,MIC −TO,"[5]; ant(4′)-Ia, absence of tomatidine",0.5 to 1 µg/mL
same,Fold (−TO/+TO),[5]; 8 μg/ml of tomatidine,2-8 fold
same,MIC,"[5]; Human (CF lungs), MRSA",0.5 to 1 µg/mL
same,MIC,[20]; CF07-S + HQNO at 20 μg/ml,4 to 8 µg/mL
same,MIC,"[20]; CF07-S, SCV",8 µg/mL
same,MIC,"[20]; CF07-S, without HQNO",8 µg/mL
